Measured values published in patent US9834542B2, “LXR modulators” (BRISTOL-MYERS SQUIBB COMPANY, priority 2013, dated 2017).

Biological target: T1, LXRβ (Homo sapiens, UniProt P55055)
T1 construct: Co-transfection expression plasmids, comprising full-length LXRα (pCMX-h LXRα[…] or LXRβ (pCMX-hLXRβ)); expressed in transfected cells; host or cells: CV-1 African Green Monkey Kidney Cells
T1 sequence (P55055 1-460): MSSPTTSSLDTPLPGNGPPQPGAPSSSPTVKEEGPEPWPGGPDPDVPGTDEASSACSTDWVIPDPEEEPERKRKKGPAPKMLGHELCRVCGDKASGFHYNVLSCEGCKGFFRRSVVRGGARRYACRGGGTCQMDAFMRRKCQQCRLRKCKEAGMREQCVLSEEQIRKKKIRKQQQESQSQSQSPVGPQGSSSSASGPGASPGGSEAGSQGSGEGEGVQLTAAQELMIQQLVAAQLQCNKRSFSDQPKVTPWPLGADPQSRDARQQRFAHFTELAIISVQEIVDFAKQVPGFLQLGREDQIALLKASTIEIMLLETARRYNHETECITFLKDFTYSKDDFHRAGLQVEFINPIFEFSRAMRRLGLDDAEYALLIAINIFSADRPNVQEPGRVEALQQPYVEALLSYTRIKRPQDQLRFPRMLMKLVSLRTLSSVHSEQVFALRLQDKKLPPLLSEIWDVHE
T1 sequence (P19793 1-462 partner): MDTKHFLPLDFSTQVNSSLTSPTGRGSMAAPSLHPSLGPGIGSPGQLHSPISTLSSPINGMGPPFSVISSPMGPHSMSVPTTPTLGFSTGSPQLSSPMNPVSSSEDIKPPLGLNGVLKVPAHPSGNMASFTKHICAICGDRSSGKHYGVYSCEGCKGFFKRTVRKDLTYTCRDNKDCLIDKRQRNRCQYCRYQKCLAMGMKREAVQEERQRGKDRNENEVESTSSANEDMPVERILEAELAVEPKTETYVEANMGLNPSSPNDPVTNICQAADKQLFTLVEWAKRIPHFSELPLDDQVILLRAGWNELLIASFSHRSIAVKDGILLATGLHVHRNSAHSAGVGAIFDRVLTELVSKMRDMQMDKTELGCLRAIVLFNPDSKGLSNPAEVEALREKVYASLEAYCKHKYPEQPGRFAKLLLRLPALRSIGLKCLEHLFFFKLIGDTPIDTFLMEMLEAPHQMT
Assay: Co-transfection assay (LXRE luciferase reporter), LXRβ
Type: cell-based
Details: for EC50: CV-1 cells transfected with pCMX-hLXRβ and LXREx1-Tk-Luciferase, 20 hours incubation; for Emax: LXRβ co-transfection, relative to high control 1-(2,4-difluorobenzyl)-2-oxo-6-(4-phenoxyphenyl)-4-(trifluoromethyl)-1,2-dihydropyridine-3-carbonitrile, read-out: % Efficacy
How it was run: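 Luciferase output from an LXRE-Tk reporter measured after 20 h, 37 °C compound exposure of transiently transfected CV-1 cells expressing human LXRβ with endogenous RXR. EC50 fitted from 11-point half-log dose responses (mean of ≥2 runs); % efficacy versus maximal response of the reference agonist.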

Compound	EC50 [µM]	Emax [%]
CS(=O)(=O)c1cc(-c2cc(F)c(-n3cnc(C(F)(F)F)c3)c(-n3nncc3-c3ccc(OC(F)(F)F)cc3)c2)cc(F)c1CO [Example 189, [3,3′-difluoro-5-(methylsulfonyl)-4′-[4-(trifluoromethyl)-1H-imidazol-1-yl]-5′-(5-{4-[(trifluoromethyl)oxy]phenyl}-1H-1,2,3-triazol-1-yl)biphenyl-4-yl]methanol]	1.79	95
CNS(=O)(=O)c1cccc(-c2ccc(-n3cc(C(F)F)nc3C)c(-c3cnnn3Cc3ccc(Cl)cc3)c2)c1 [Example 246, 3′-(1-(4-chlorobenzyl)-1H-1,2,3-triazol-5-yl)-4′-(4-(difluoromethyl)-2-methyl-1H-imidazol-1-yl)-N-methyl-[1,1′-biphenyl]-3-sulfonamide]	0.475	91
Cc1nc(C(F)(F)F)cn1-c1ccc(-c2cccc(S(C)(=O)=O)c2)cc1-n1nncc1-c1ccc(Cl)c(C#N)c1 [Example 41, 2-chloro-5-(1-{3′-(methylsulfonyl)-4-[2-methyl-4-(trifluoromethyl)-1H-imidazol-1-yl]biphenyl-3-yl}-1H-1,2,3-triazol-5-yl)benzonitrile]	1.05	74
Cc1nc(-c2cc(-c3cccc(S(C)(=O)=O)c3)ccc2-n2cc(C(F)(F)F)nc2C)c(-c2ccc(F)c(OC(F)F)c2)o1 [Example 460, 5-(3-(difluoromethoxy)-4-fluorophenyl)-2-methyl-4-(4-(2-methyl-4-(trifluoromethyl)-1H-imidazol-1-yl)-3′-(methylsulfonyl)biphenyl-3-yl)oxazole]	0.55	64
Cc1nc(-c2cc(-c3cc(F)c(CO)c(S(C)(=O)=O)c3)ccc2-n2cc(C(F)(F)F)nc2C)c(-c2cccc(OC(F)(F)C(F)F)c2)o1 [Example 546, (3-fluoro-4′-(2-methyl-4-(trifluoromethyl)-1H-imidazol-1-yl)-3′-(2-methyl-5-(3-(1,1,2,2-tetrafluoroethoxy)phenyl)oxazol-4-yl)-5-(methylsulfonyl)-[1,1′-biphenyl]-4-yl)methanol]	0.119	51
Cc1nc(C(F)F)c(C)n1-c1ccc(-c2cc(F)c(CO)c(S(C)(=O)=O)c2)cc1-n1nncc1-c1ccc(Cl)cc1 [Example 231, (3′-(5-(4-chlorophenyl)-1H-1,2,3-triazol-1-yl)-4′-(4-(difluoromethyl)-2,5-dimethyl-1H-imidazol-1-yl)-3-fluoro-5-(methylsulfonyl)-[1,1′-biphenyl]-4-yl)methanol]	1.68	37
CNS(=O)(=O)c1cccc(-c2ccc(-n3cc(C(F)F)nc3C)c(-n3nncc3-c3ccc(OC(F)(F)F)cc3)c2)c1 [Example 154, 4′-[4-(difluoromethyl)-2-methyl-1H-imidazol-1-yl]-N-methyl-3′-(5-{4-[(trifluoromethyl)oxy]phenyl}-1H-1,2,3-triazol-1-yl)biphenyl-3-sulfonamide]	0.527	91
Cc1nc(-c2cc(-c3cccc(S(C)(=O)=O)c3)ccc2-n2cc(Cl)nc2C)c(-c2ccc3c(c2)OC(F)(F)O3)o1 [Example 423, 4-(4-(4-chloro-2-methyl-1H-imidazol-1-yl)-3′-(methylsulfonyl)biphenyl-3-yl)-5-(2,2-difluorobenzo[d][1,3]dioxol-5-yl)-2-methyloxazole]	0.061	74
Cc1nc(C(F)(F)F)cn1-c1ccc(-c2cccc(C(C)(C)C(N)=O)c2)cc1-n1nncc1Cc1cccc(Cl)c1 [Example 114, 2-(3′-{5-[(3-chlorophenyl)methyl]-1H-1,2,3-triazol-1-yl}-4′-[2-methyl-4-(trifluoromethyl)-1H-imidazol-1-yl]biphenyl-3-yl)-2-methylpropanamide]	0.94	98
COc1cc(-c2oc(C)nc2-c2cc(-c3cc(F)c(CO)c(S(C)(=O)=O)c3)ccc2-n2cc(C(F)(F)F)nc2C)ccc1OC(F)F [Example 381, (3′-(5-(4-(difluoromethoxy)-3-methoxyphenyl)-2-methyloxazol-4-yl)-3-fluoro-4′-(2-methyl-4-(trifluoromethyl)-1H-imidazol-1-yl)-5-(methylsulfonyl)biphenyl-4-yl)methanol]	0.018	81
Cc1nc(-c2cc(-c3cc(F)c(CO)c(S(C)(=O)=O)c3)ccc2-n2cc(C(F)(F)F)nc2C)c(-c2ccc3c(c2)CCC3)o1 [Example 475, (3′-(5-(2,3-dihydro-1H-inden-5-yl)-2-methyloxazol-4-yl)-3-fluoro-4′-(2-methyl-4-(trifluoromethyl)-1H-imidazol-1-yl)-5-(methylsulfonyl)biphenyl-4-yl)methanol]	0.069	56
Cc1nc(C(F)(F)F)cn1-c1ccc(-c2cccc(S(C)(=O)=O)c2)cc1-n1nncc1C(C)(C)c1ccc(Cl)cc1 [Example 222, 5-(2-(4-chlorophenyl)propan-2-yl)-1-(4-(2-methyl-4-(trifluoromethyl)-1H-imidazol-1-yl)-3′-(methylsulfonyl)-[1,1′-biphenyl]-3-yl)-1H-1,2,3-triazole]	1.85	43
Cc1nc(C(F)(F)F)cn1-c1ccc(-c2cccc(S(C)(=O)=O)c2)cc1-c1ccnn1-c1ccc2c(c1)OC(F)(F)O2 [Example 293, 1-(2,2-difluorobenzo[d][1,3]dioxol-5-yl)-5-(4-(2-methyl-4-(trifluoromethyl)-1H-imidazol-1-yl)-3′-(methylsulfonyl)biphenyl-3-yl)-1H-pyrazole]	0.114	97
COc1ccc(-c2oc(C)nc2-c2cc(-c3cccc(S(C)(=O)=O)c3)ccc2-n2cc(C(F)(F)F)nc2C)cn1 [Example 569, 5-(6-methoxypyridin-3-yl)-2-methyl-4-(4-(2-methyl-4-(trifluoromethyl)-1H-imidazol-1-yl)-3′-(methylsulfonyl)-[1,1′-biphenyl]-3-yl)oxazole]	0.214	90
Cc1nc(-c2cc(-c3cc(F)c(CO)c(S(C)(=O)=O)c3)ccc2-n2cc(C(F)(F)F)nc2C)c(-c2ccc(OC3CCCC3)nc2)o1 [Example 411, (3′-(5-(6-(cyclopentyloxy)pyridin-3-yl)-2-methyloxazol-4-yl)-3-fluoro-4′-(2-methyl-4-(trifluoromethyl)-1H-imidazol-1-yl)-5-(methylsulfonyl)biphenyl-4-yl)methanol]	0.255	60
Cc1nc(C(F)(F)F)cn1-c1c(F)cc(-c2cc(F)c(CO)c(S(C)(=O)=O)c2)cc1-n1nncc1-c1ccc(Cl)cc1 [Example 198, {3′-[5-(4-chlorophenyl)-1H-1,2,3-triazol-1-yl]-3,5′-difluoro-5-(methylsulfonyl)-4′-[2-methyl-4-(trifluoromethyl)-1H-imidazol-1-yl]biphenyl-4-yl}methanol]	0.092	87
Cc1nc(Cl)cn1-c1ccc(-c2cc(F)c(CO)c(S(C)(=O)=O)c2)cc1-n1nncc1-c1ccc(OC(F)(F)F)cc1 [Example 147, [4′-(4-chloro-2-methyl-1H-imidazol-1-yl)-3-fluoro-5-(methylsulfonyl)-3′-(5-{4-[(trifluoromethyl)oxy]phenyl}-1H-1,2,3-triazol-1-yl)biphenyl-4-yl]methanol]	0.413	76
Cc1nc(C(F)(F)F)cn1-c1ccc(-c2cccc(S(C)(=O)=O)c2)cc1-n1nncc1C(=O)c1ccc(C(F)(F)F)cc1 [Example 138, (1-{3′-(methylsulfonyl)-4-[2-methyl-4-(trifluoromethyl)-1H-imidazol-1-yl]biphenyl-3-yl}-1H-1,2,3-triazol-5-yl)[4-(trifluoromethyl)phenyl]meth-anone]	1.29	99
Cc1nc(C(F)(F)F)cn1-c1ccc(-c2cccc(S(C)(=O)=O)c2)cc1-n1nncc1-c1cccc(OC(F)F)c1 [Example 37, 5-{3-[(difluoromethyl)oxy]phenyl}-1-{3′-(methylsulfonyl)-4-[2-methyl-4-(trifluoromethyl)-1H-imidazol-1-yl]biphenyl-3-yl}-1H-1,2,3-triazole]	0.758	96
Cc1nc(-c2ccc(Cl)cc2)c(-c2cc(-c3cccc(S(C)(=O)=O)c3)ccc2-n2cc(C(F)(F)F)nc2C)o1 [Example 605, 4-(4-chlorophenyl)-2-methyl-5-(4-(2-methyl-4-(trifluoromethyl)-1H-imidazol-1-yl)-3′-(methylsulfonyl)-[1,1′-biphenyl]-3-yl)oxazole]	0.091	89
